The text below walks through data of patent publication US20250145589A1, “PYRIDINE DERIVATIVE AND USE THEREOF” (SICHUAN HUIYU PHARMACEUTICAL CO., LTD., priority 2021, published 2025).

One experiment has as its target PI3Kδ (Homo sapiens (Human), UniProt O00329). Nature of the experiment: Inhibition of PI3Kδ efficacy assay (ADP-Glo kinase assay). The experiment is classed as biochemical. Particulars: read-out: PI3Kδ inhibitory activity (IC50). The method, boiled down:
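Luminescent ADP-Glo readout of PI3Kδ: after a 60 min RT reaction with PI/ATP substrate, ATP depletion (40 min) and ADP detection (40 min) steps followed. Compounds tested as eight five-fold serial dilutions; inhibition rates fitted to log(inhibitor) vs. response, variable slope, for IC50.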

Experiment [1] has as its system MIA PaCa-2 cells (KRAS G12C mutant). As to the kind of experiment: MIA PaCa-2 cell anti-proliferation (CellTiter-Glo). Particulars: Homo sapiens, 72 h; MIA Paca-2 cells, 3 days, Table 7; read-out: MIA PaCa-2 (IC50). It counts as cell-based. The method, boiled down: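 Viable-cell luminescence (CellTiter-Glo, ≥30 min at 25 °C) measured after a 3-day, 37 °C exposure to compounds at 9 points, 4-fold spaced, in DMEM containing 10% FBS plus 2.5% horse serum. IC50 derived versus no-inhibitor wells.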

The target in the next experiment is PI3Kα (Homo sapiens (Human), UniProt P42336). As to the kind of experiment: Inhibition of PI3Kα efficacy assay (ADP-Glo kinase assay). It counts as biochemical. Particulars: read-out: PI3Kα inhibitory activity (IC50). Put shortly:
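ADP-Glo luminescent detection of ADP from PI3Kα acting on PI substrate with ATP, 60 min at RT; compounds in 8-point five-fold serial dilution from 2 mM DMSO stock. IC50 from four-parameter variable-slope fit.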

Experiment [2] relates to MIA PaCa-2-AMGR drug-resistant cell line. As to the kind of experiment: MIA PaCa-2-AMGR drug-resistant cell proliferation inhibitory activity test. The experiment is classed as cell-based. The note with it: 72 h, MIA PaCa-2-AMGR drug-resistant cells, 3 days incubation, CellTiter-Glo. The method, boiled down:
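MIA PaCa-2 line made resistant by stepwise AMG510 exposure up to 1 μM. Cells seeded at 4×10^3/well overnight, then treated with 8 concentrations (5-fold dilutions) for 3 days at 37° C, 5% CO2 in DMEM with 10% FBS + 2.5% horse serum. Viability by CellTiter-Glo luminescence; IC50 versus no-inhibitor control.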

Another experiment concerns the target KRAS^G12C-SOS1 (Homo sapiens (Human), UniProt P01116, G12C). As to the kind of experiment: HTRF KRAS G12C/SOS1 binding assay. The note with it: Table 5. The method, boiled down: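 Compound was serially diluted five-fold over eight points, with a 2 mM DMSO stock. After anti-tag-Tb3+ and anti-tag-XL665 were added, plates were incubated 3 h at 4 °C and read by HTRF (ex 337 nm, em 620/665 nm ratio). IC50 values come from four-parameter variable-slope fits.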

Read-outs that look alike come from different tables or passages of the source.

PI3Kδ, sequence (O00329 whole entry): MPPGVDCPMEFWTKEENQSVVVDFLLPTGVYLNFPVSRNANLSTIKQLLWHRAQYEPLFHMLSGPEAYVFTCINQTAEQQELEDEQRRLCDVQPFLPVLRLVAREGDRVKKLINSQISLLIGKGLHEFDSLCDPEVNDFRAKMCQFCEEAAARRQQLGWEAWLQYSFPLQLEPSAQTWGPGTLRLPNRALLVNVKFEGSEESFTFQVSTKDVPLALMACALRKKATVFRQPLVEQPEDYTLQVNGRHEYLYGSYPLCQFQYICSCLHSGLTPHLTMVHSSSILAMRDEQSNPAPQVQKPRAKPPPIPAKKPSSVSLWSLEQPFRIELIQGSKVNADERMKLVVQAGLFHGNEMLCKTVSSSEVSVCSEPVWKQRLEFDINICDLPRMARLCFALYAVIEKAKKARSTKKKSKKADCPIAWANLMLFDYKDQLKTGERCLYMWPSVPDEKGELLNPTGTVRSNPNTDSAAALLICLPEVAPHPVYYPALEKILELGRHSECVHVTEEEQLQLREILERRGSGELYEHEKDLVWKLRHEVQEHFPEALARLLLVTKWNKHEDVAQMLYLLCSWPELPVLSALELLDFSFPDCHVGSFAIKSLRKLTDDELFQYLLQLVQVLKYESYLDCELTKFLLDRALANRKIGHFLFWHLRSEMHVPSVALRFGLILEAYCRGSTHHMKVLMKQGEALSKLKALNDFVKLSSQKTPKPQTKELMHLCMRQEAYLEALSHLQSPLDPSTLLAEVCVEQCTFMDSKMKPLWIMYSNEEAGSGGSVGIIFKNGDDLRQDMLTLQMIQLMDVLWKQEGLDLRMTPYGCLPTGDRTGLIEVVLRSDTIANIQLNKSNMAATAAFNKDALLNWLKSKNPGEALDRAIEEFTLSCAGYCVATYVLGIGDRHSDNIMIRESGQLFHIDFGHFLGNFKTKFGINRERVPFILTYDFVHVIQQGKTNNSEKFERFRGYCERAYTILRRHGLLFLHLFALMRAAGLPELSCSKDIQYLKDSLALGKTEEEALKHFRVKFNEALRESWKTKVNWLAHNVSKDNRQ
PI3Kδ, sequence (P27986 whole entry partner): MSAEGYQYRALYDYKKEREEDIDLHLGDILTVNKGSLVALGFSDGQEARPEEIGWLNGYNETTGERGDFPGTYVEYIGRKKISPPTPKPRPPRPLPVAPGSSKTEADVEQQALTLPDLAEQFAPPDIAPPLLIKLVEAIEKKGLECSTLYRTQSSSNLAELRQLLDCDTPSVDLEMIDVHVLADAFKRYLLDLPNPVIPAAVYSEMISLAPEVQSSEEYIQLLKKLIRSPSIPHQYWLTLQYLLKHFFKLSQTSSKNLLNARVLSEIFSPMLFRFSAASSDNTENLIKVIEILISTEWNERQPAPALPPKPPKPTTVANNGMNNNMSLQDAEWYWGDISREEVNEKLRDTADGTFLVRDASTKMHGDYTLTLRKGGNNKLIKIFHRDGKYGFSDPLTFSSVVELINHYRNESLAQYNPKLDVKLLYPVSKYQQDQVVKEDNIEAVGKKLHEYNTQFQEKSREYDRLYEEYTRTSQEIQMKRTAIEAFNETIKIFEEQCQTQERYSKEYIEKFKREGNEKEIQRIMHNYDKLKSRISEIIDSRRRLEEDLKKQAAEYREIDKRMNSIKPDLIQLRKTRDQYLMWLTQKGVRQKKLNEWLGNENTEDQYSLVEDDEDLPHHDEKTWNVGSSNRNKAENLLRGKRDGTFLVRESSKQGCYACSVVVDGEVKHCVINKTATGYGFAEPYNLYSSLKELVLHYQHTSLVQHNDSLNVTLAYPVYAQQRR
PI3Kα, sequence (P42336 whole entry): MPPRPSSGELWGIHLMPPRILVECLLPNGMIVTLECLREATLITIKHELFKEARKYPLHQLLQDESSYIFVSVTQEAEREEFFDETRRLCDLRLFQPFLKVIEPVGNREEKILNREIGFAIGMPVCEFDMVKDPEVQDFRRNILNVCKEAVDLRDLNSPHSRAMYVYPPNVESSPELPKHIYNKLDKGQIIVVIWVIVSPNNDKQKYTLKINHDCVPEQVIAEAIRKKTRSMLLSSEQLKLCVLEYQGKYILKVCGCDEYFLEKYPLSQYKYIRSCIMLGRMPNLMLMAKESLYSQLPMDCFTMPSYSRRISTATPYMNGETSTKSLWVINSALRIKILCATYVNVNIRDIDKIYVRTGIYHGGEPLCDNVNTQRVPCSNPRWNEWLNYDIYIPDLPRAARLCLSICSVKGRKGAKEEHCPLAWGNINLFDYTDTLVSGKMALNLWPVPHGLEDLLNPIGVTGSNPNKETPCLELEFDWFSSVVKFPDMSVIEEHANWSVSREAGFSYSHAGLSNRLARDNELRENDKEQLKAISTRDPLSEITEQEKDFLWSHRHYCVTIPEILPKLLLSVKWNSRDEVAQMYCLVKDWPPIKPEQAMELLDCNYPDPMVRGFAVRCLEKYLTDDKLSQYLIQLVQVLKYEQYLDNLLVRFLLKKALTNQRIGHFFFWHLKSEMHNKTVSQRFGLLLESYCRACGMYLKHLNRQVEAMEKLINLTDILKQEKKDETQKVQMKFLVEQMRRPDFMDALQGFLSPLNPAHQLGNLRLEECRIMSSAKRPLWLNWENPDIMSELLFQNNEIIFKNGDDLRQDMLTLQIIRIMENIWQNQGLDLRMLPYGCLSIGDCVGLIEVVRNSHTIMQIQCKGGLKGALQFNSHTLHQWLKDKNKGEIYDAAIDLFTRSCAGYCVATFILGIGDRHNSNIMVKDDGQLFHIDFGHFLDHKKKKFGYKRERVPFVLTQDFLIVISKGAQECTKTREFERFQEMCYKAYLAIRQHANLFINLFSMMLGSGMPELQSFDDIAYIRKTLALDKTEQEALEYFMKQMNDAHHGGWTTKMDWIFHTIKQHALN
PI3Kα, sequence (P27986 whole entry partner): as the sequence (P27986 whole entry partner) above
KRAS^G12C-SOS1, sequence (P01116-2 other isoform, or with tags, fused parts or gaps G12C): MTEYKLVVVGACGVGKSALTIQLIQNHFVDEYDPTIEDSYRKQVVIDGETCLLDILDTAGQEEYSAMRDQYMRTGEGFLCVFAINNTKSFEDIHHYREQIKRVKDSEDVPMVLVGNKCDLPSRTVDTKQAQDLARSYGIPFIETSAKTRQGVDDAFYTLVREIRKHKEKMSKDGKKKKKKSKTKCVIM

As for `COc1ncc(-c2ccc3ncnc(C4CCN(C(=O)/C=C/C(C)=O)CC4)c3n2)cc1NS(=O)(=O)c1ccc(F)cc1F` [Example 234, (E)-2,4-difluoro-N-(2-methoxy-5-(4-(1-(4-oxopent-2-enoyl)piperidin-4-yl)pyrido[3,2-d]pyrimidin-6-yl)pyridin-3-yl)benzenesulfonamide], the IC50 worked out at 20 nM at PI3Kδ (Table 4); 14.9 nM in experiment [1]; 4.2 nM on PI3Kα (Table 4); 5.3 nM in experiment [2]; 292 nM on KRAS^G12C-SOS1.
Regarding `COc1ncc(-c2ccc3ncnc(N4C[C@@H](C)N(C(=O)/C=C/C(C)=O)C[C@@H]4C)c3c2)cc1NS(=O)(=O)c1c(F)cccc1F` [Example 51, N-(5-(4-((2S,5R)-2,5-dimethyl-4-((E)-4-oxopent-2-enoyl)piperazin-1-yl)quinazolin-6-yl)-2-methoxypyridin-3-yl)-2,6-difluorobenzene-sulfonamide], the half-maximal inhibitory concentration (IC50) at PI3Kδ (Table 2) stood at 19.2 nM; in experiment [1] it was 50.7 nM; on PI3Kα (Table 2), 5.6 nM; in experiment [2] it was 181 nM; at KRAS^G12C-SOS1, 942 nM.
Regarding `COc1ncc(-c2ccc3ncnc(N4CCN(C(=O)/C=C/C(C)=O)C[C@@H]4C)c3c2)cc1NS(=O)(=O)c1ccc(F)cc1` [Example 153, (S,E)-4-fluoro-N-(2-methoxy-5-(4-(2-methyl-4-(4-oxopent-2-enoyl)piperazin-1-yl)quinazolin-6-yl)pyridin-3-yl)benzenesulfonamide], the IC50 came to 12.7 nM on PI3Kδ (Table 4); 56.7 nM in experiment [1]; 0.73 nM on PI3Kα (Table 4); 49.7 nM in experiment [2]; 210 nM at KRAS^G12C-SOS1.
The matching figures for `COc1ncc(-c2ccc3ncnc(C4CCN(C(=O)/C=C/C(C)=O)CC4)c3n2)cc1NS(=O)(=O)c1c(F)cccc1F` [Example 233, (E)-2,6-difluoro-N-(2-methoxy-5-(4-(1-(4-oxopent-2-enoyl)piperidin-4-yl)pyrido[3,2-d]pyrimidin-6-yl)pyridin-3-yl)benzenesulfonamide]: 31.3 nM, 14.2 nM, 4 nM, 16.7 nM and 204 nM.
As to `COc1ncc(-c2ccc3ncnc(N4CCN(C(=O)/C=C/C(C)=O)CC4)c3c2)cc1NS(=O)(=O)c1c(F)cc(F)cc1F` [Example 99, (E)-2,4,6-trifluoro-N-(2-methoxy-5-(4-(4-(4-oxopent-2-enoyl)piperazin-1-yl)quinazolin-6-yl)pyridin-3-yl)benzenesulfonamide], the IC50 on PI3Kδ (Table 2) is 7.9 nM; in experiment [1], 16.7 nM; on PI3Kα (Table 2), 6 nM; in experiment [2] it was 72.9 nM; at KRAS^G12C-SOS1, 188 nM.
For the molecule `COc1ncc(-c2ccc3ncnc(C4=CCN(C(=O)/C=C/C(C)=O)CC4)c3c2)cc1NS(=O)(=O)c1ccccc1F` [Example 200, (E)-2-fluoro-N-(2-methoxy-5-(4-(1-(4-oxopent-2-enoyl)-1,2,3,6-tetrahydropyridin-4-yl)quinazolin-6-yl)pyridin-3-yl)benzene-sulfonamide], the IC50 on PI3Kδ (Table 4) came out at 9.7 nM; in experiment [1] it was 40.5 nM; on PI3Kα (Table 4), 2.3 nM; in experiment [2], 4.3 nM; at KRAS^G12C-SOS1, 133 nM.
The matching figures for `COc1ncc(-c2ccc3ncnc(C4CCN(C(=O)/C=C/C(C)=O)CC4)c3n2)cc1NS(=O)(=O)c1ccccc1F` [Example 232, (E)-2-fluoro-N-(2-methoxy-5-(4-(1-(4-oxopent-2-enoyl)piperidin-4-yl)pyrido[3,2-d]pyrimidin-6-yl)pyridin-3-yl)benzenesulfonamide]: 14.6 nM, 17.7 nM, 2 nM, 9 nM and 269 nM.
The like results for `COc1ncc(-c2ccc3ncnc(N4CCN(C(=O)/C=C/C(C)=O)C[C@@H]4C)c3c2)cc1NS(=O)(=O)c1ccc(F)cc1Cl` [Example 174, (S,E)-2-chloro-4-fluoro-N-(2-methoxy-5-(4-(2-methyl-4-(4-oxopent-2-enoyl)piperazin-1-yl)quinazolin-6-yl)pyridin-3-yl)benzene-sulfonamide] were, in that order, 17.1 nM, 15.6 nM, 3.5 nM, 26.3 nM and 423 nM.
Consider `COc1ncc(-c2ccc3ncnc(N4CCN(C(=O)/C=C/C(C)=O)CC4)c3n2)cc1NS(=O)(=O)c1c(F)cc(F)cc1F` [Example 219, (E)-2,4-trifluoro-N-(2-methoxy-5-(4-(4-(4-oxopent-2-enoyl)piperazin-1-yl)pyrido[3,2-d]pyrimidin-6-yl)pyridin-3-yl) benzene-sulfonamide], for which the IC50 on PI3Kδ (Table 4) was determined as 11.6 nM; in experiment [1], 5.8 nM; at PI3Kα (Table 4), 0.91 nM; in experiment [2], 6.4 nM; at KRAS^G12C-SOS1, 152 nM.
The like results for `COc1ncc(-c2ccc3ncnc(C4CCN(C(=O)/C=C/C(C)=O)CC4)c3c2)cc1NS(=O)(=O)c1ccccc1F` [Example 204, (E)-2-fluoro-N-(2-methoxy-5-(4-(1-(4-oxopent-2-enoyl)piperidin-4-yl)quinazolin-6-yl)pyridin-3-yl)benzenesulfonamide] were, in that order, 17 nM, 115 nM, 3.3 nM, 45.8 nM and 306 nM.
In the case of `COc1ncc(-c2ccc3ncnc(N4CCN(C(=O)/C=C/C(C)=O)CC4)c3n2)cc1NS(=O)(=O)c1c(Cl)cncc1Cl` [Example 224, (E)-3,5-dichloro-N-(2-methoxy-5-(4-(4-(4-oxopent-2-enoyl)piperazin-1-yl)pyrido[3,2-d]pyrimidin-6-yl)pyridin-3-yl) pyridine-4-sulfonamide], the IC50 at PI3Kδ (Table 4) worked out at 23.8 nM; in experiment [1], 79.3 nM; on PI3Kα (Table 4), 1.1 nM; in experiment [2], 144 nM; at KRAS^G12C-SOS1, 188 nM.
For the molecule `COc1ncc(-c2ccc3ncnc(N4CCN(C(=O)/C=C/C(C)=O)CC4)c3n2)cc1NS(=O)(=O)c1c(F)cccc1F` [Example 131, (E)-2,6-difluoro-N-(2-methoxy-5-(4-(4-(4-oxopent-2-enoyl)piperazin-1-yl)pyrido[3,2-d]pyrimidin-6-yl)pyridin-3-yl)benzenesulfonamide], the IC50 was determined as 13.7 nM at PI3Kδ (Table 3); 25 nM in experiment [1]; 1.6 nM at PI3Kα (Table 3); 29.6 nM in experiment [2]; 200 nM on KRAS^G12C-SOS1.
Regarding `COc1ncc(-c2ccc3ncnc(N4CCN(C(=O)/C=C/C(C)=O)CC4)c3n2)cc1NS(=O)(=O)c1c(F)cncc1F` [Example 210, (E)-3,5-difluoro-N-(2-methoxy-5-(4-(4-(4-oxopent-2-enoyl)piperazin-1-yl)pyrido[3,2-d]pyrimidin-6-yl)pyridin-3-yl)pyridine-4-sulfonamide], the IC50 amounted to 5.9 nM at PI3Kδ (Table 4); 47.7 nM in experiment [1]; 0.54 nM at PI3Kα (Table 4); 97.4 nM in experiment [2]; 131 nM on KRAS^G12C-SOS1.
As to `COc1ncc(-c2ccc3ncnc(N4C[C@@H](C)N(C(=O)/C=C/C(C)=O)C[C@@H]4C)c3c2)cc1NS(=O)(=O)c1ccc(F)cc1F` [Example 15, N-(5-(4-((2S,5R)-2,5-dimethyl-4-((E)-4-oxopent-2-enoyl)piperazin-1-yl)quinazolin-6-yl)-2-methoxypyridin-3-yl)-2,4-difluorobenzenesulfonamide], the IC50 at PI3Kδ (Table 1) is 130 nM; in experiment [1], 71.1 nM; at PI3Kα (Table 1), 10.2 nM; in experiment [2] it was 243 nM; on KRAS^G12C-SOS1, 558 nM.
The like results for `COc1ncc(-c2ccc3ncnc(N4CCC5(CC4)CN(C(=O)/C=C/C(C)=O)C5)c3c2)cc1NS(=O)(=O)c1ccc(F)cc1F` [Example 20, (E)-2,4-difluoro-N-(2-methoxy-5-(4-(2-(4-oxopent-2-enoyl)-2,7-diazaspiro[3.5]nonan-7-yl)quinazolin-6-yl)pyridin-3-yl)benzenesulfonamide] were, in that order, 212 nM, 64.1 nM, 7.4 nM, 111 nM and 239 nM.
